In patent US11208405B2, “Pyrrole derivatives as PLK1 inhibitors” (SENTINEL ONCOLOGY LIMITED, priority 2017, dated 2021) one finds GI50 data, which are given here for 42 compounds.

Where a name gives a salt, the structure may show the parent alone.

The assay relates to HCT116 cells. As to the kind of experiment: Effects on HCT116 colorectal cancer cell viability (cell titre blue, 72 hours). It is filed as cell-based. The note with it: Homo sapiens, HCT-116, HCT116 cell line. The procedure:
Assay to Measure the Effects of Compounds of the Invention on HCT116 Colorectal Cancer Cell Viability
The following protocol was used to measure the effects of compounds of the invention on HCT116 cell viability.
1. HCT116 cells were grown in RPM11640 media supplemented with Glutamax and 10% FBS in a 37° C./5% CO2 incubator.
2. Growing culture of HCT116 cells were trypsinised, counted and diluted to give 10,000 cells/mL in an appropriate volume, allowing at least 6 mL of cells per plate.
3. 200 μL of PBS were added to all the outer wells of a flat-bottomed (8×12) 96-well TC plate. 100 μL of media were added only to wells in column 11 of the plates (these wells provided a blank for the cell titre blue assay). Two compounds were assayed on each plate.
4. 100 ul of 10,000 cells/mL HCT116s were plated in rows B-G of each plate.
5. The cells were incubated (37° C. 5% CO2) for 24 hours before treating with compounds.
6. An 8 mM compound stock in DMSO was prepared for all compounds to be tested. 2.5 μL of the compound stock was added to 1000 μL growth medium in a 96-well deep well block and serial dilutions were prepared across the plate by transferring 500 μL into wells containing 500 μL growth medium+0.25% DMSO to give eight concentrations of compound (this ensured a constant amount of DMSO at all concentrations of compound). When making up growth medium+DMSO, an amount of 5 ml was allowed per compound to be diluted.
7. 3 rows of cells were treated with 100 μL/well from each row on the dilution plate so that each cell plate is treated with a single compound. This gave a final volume in all wells of 200 μL and a titration of compound from a final concentration of 10 uM down to 78 nM.
8. The cells were incubated (37° C. 5% CO2) for 72 hours.
9. 5 ul cell titre blue reagent (Promega) were added to all wells except the edge wells (which contain PBS only) and incubated (37° C. 5% CO2) for 2.5-3 hours.
10. Fluorescence was measured on a suitable plate reader using a 530-570 nm filter set for excitation and a 580-620 nm filter set for fluorescence emission.
11. Data were analysed using an appropriate graphing package (such as GraphPad Prism). Data were expressed as the concentration of compound causing a 50% inhibition of cell viability or GI50.
On to `CN(C)CCNC(=O)c1cccc(-c2ccc(-c3ccc(F)cc3)n2-c2ccccc2C(F)(F)F)c1` [Example 5, hydrochloride], for which the GI50 (usually the concentration that inhibits growth by half) was found to be 560 nM. For `CN(C)CCNC(=O)c1cccc(-c2ccc(-c3ccc(Oc4ccccc4)cc3)n2-c2ccc(F)cc2)c1` [Example 8, hydrochloride] the value was 1850 nM. For `CN(C)CCCNc1cccc(-c2ccc(-c3ccc(Br)cc3)n2-c2ccccc2C(F)(F)F)c1` [Example 16, N-[3-[5-(4-Bromophenyl)-1-[2-(trifluoromethyl)phenyl]pyrrol-2-yl]phenyl]-N′,N′-dimethyl-propane-1,3-diamine Hydrochloride] the value was 2720 nM. `CN(C)CCNC(=O)c1ccc(Cl)c(-c2ccc(-c3ccc(Br)cc3)n2-c2ccccc2)c1` [Example 19, hydrochloride]: halving of growth (GI50) required 4210 nM. For `COc1ccc(C(=O)NCCN(C)C)cc1-c1ccc(-c2ccc(Br)cc2)n1-c1ccccc1` [Example 20, hydrochloride] the value was 3940 nM; for `CN(C)CC(=O)NCc1cccc(-c2ccc(-c3ccc(Br)cc3)n2-c2ccccc2C(F)(F)F)c1` [Example 21, N-[[3-[5-(4-Bromophenyl)-1-[2-(trifluoromethyl)phenyl]pyrrol-2-yl]phenyl]methyl]-2-(dimethylamino)acetamide Hydrochloride], 1060 nM.

Compound `O=C(O)c1ccc(-c2ccc(-c3ccc(Br)cc3)n2-c2ccccc2C(F)(F)F)cc1` [Example 27, 4-[5-(4-bromophenyl)-1-[2-(trifluoromethyl)phenyl]pyrrol-2-yl]benzoic acid] displayed a GI50 of 4740 nM. Consider `CN(C)CCNC(=O)c1ccc(-c2ccc(-c3ccc(Br)cc3)n2-c2ccccc2C(F)(F)F)nc1` [Example 29, 6-[5-(4-Bromophenyl)-1-[2-(trifluoromethyl)phenyl]pyrrol-2-yl]-N-[2-(dimethylamino)ethyl]pyridine-3-carboxamide Hydrochloride], for which the GI50 was 60 nM.

As for `O=C(O)c1ccc(-c2ccc(-c3ccc(Br)cc3)n2-c2ccccc2C(F)(F)F)nc1` [Example 30, 6-[5-(4-bromophenyl)-1-[2-(trifluoromethyl)phenyl]pyrrol-2-yl]pyridine-3-carboxylic acid], the GI50 amounted to 8440 nM. With `COc1cc(-c2ccc(-c3ccc(Br)cc3)n2-c2ccccc2C(F)(F)F)ccc1C(=O)NCCCN(C)C` [Example 31, hydrochloride], the GI50 stood at 1450 nM. `COc1cc(C(=O)NCCN(C)C)ccc1-c1ccc(-c2ccc(Br)cc2)n1-c1ccccc1C(F)(F)F` [Example 32, hydrochloride] returned a 50% growth inhibitory concentration (GI50) of 60 nM.

For `CN(C)CCNC(=O)c1ccc(-c2ccc(-c3ccc(Br)cc3)n2-c2ccccc2C(F)(F)F)cc1Cl` [Example 38], the GI50 was determined as 190 nM.

In turn, `CN(C)CCNC(=O)c1ccc(-c2ccc(-c3ccccc3)n2-c2ccccc2C(F)(F)F)cc1Cl` [Example 39, hydrochloride] had a GI50 of 350 nM.

`CN(C)CCNC(=O)c1ccc(-c2ccc(-c3ccc(Br)cc3)n2-c2ccccc2CN(C)C)cc1` [Example 40, hydrochloride] returned a GI50 of 1030 nM. The compound `CN(C)CCNC(=O)c1ccc(-c2ccc(-c3ccc(F)cc3F)n2-c2ccccc2C(F)(F)F)cc1` [Example 43] registered a GI50 of 200 nM. For `CN(C)CCNS(=O)(=O)c1ccc(-c2ccc(-c3ccc(Br)cc3)n2-c2ccccc2C(F)(F)F)cc1` [Example 44, 4-[5-(4-Bromophenyl)-1-[2-(trifluoromethyl)phenyl]pyrrol-2-yl]-N-[2-(dimethylamino)ethyl]benzenesulfonamide Hydrochloride] the value was 510 nM; for `CN(C)CCOCc1ccc(-c2ccc(-c3ccc(Br)cc3)n2-c2ccccc2C(F)(F)F)cc1` [Example 45, 2-[[4-[5-(4-Bromophenyl)-1-[2-(trifluoromethyl)phenyl]pyrrol-2-yl]phenyl]methoxy]-N,N-dimethyl-ethanamine Hydrochloride], 350 nM.

For the compound `CN(C)CCC(=O)Nc1ccc(-c2ccc(-c3ccc(Br)cc3)n2-c2ccccc2C(F)(F)F)cc1` [Example 46, N-[4-[5-(4-Bromophenyl)-1-[2-(trifluoromethyl)phenyl]pyrrol-2-yl]phenyl]-3-(dimethylamino) propanamide Hydrochloride], the GI50 was 160 nM. For `O=C(O)Cc1ccc(-c2ccc(-c3ccc(Br)cc3)n2-c2ccccc2C(F)(F)F)cc1` [Example 47, 2-[4-[5-(4-Bromophenyl)-1-[2-(trifluoromethyl)phenyl]pyrrol-2-yl]phenyl]acetic Acid] the value was 1380 nM. For `CN1CCN(Cc2ccc(-c3ccc(-c4ccc(Br)cc4)n3-c3ccccc3C(F)(F)F)cc2)CC1` [Example 48, hydrochloride] the value was 410 nM; for `CN(C)CCNC(=O)c1ccc(-c2ccc(-c3ccc(Cl)cc3)n2-c2cnccc2C(F)(F)F)cc1` [Example 49, hydrochloride], 50 nM; for `COCc1ccccc1-n1c(-c2ccc(Br)cc2)ccc1-c1ccc(C(=O)NCCN(C)C)cc1` [Example 50], 2180 nM. For `CN(C)CCCNC(=O)c1ccc(-c2ccc(-c3ccc(Cl)cc3)n2-c2cnccc2C(F)(F)F)cc1` [Example 51, hydrochloride] the value was 100 nM; for `COc1ccc(C(=O)NCCN(C)C)cc1-c1ccc(-c2ccc(Br)cc2)n1-c1ccccc1C(F)(F)F` [Example 52, hydrochloride], 350 nM; for `CN(C)[C@@H]1CCN(C(=O)c2cccc(-c3ccc(-c4ccc(Br)cc4)n3-c3ccccc3C(F)(F)F)c2)C1` [Example 54, hydrochloride], 1380 nM. Regarding `CN(C)[C@H]1CCN(C(=O)c2cccc(-c3ccc(-c4ccc(Br)cc4)n3-c3ccccc3C(F)(F)F)c2)C1` [Example 55, hydrochloride], the GI50 came to 2250 nM. For `CC(C)Cc1ccc(C(F)(F)F)c(-n2c(-c3ccc(Cl)cc3)ccc2-c2ccc(C(=O)NCCN(C)C)cc2)c1` [Example 63, hydrochloride] the value was 1640 nM. For `CC(C)Cc1ccc(C(F)(F)F)c(-n2c(-c3ccc(Cl)cc3)ccc2-c2ccc(C(=O)NCCCN(C)C)cc2)c1` [Example 64, hydrochloride] the value was 1700 nM; for `NS(=O)(=O)c1ccc(-c2ccc(-c3ccc(Br)cc3)n2-c2ccccc2C(F)(F)F)cc1` [Example 65, 4-[5-(4-bromophenyl)-1-[2-(trifluoromethyl)phenyl]pyrrol-2-yl]benzenesulfonamide], 1960 nM.

`CN(C)CCNC(=O)c1ccc(-c2ccc(-c3ccc(C#N)nc3)n2-c2ccccc2C(F)(F)F)cc1` [Example 66, hydrochloride] registered a GI50 of 890 nM.

In turn, `CN(C)CCNC(=O)c1ccc(-c2ccc(-c3ccccc3)n2-c2cnccc2C(F)(F)F)c(Cl)c1` [Example 67, hydrochloride] yielded a GI50 of 70 nM.

On to `CN(C)CCCNC(=O)c1ccc(-c2ccc(-c3ccccc3)n2-c2cnccc2C(F)(F)F)c(Cl)c1` [Example 68, hydrochloride], for which the GI50 turned out to be 110 nM. For `CN(C)CCNC(=O)c1ccc(-c2ccc(-c3cccc(Cl)c3)n2-c2ccccc2C(F)(F)F)cc1` [Example 72, hydrochloride] the value was 1730 nM; for `COc1cc(C(=O)NCCN(C)C)ccc1-c1ccc(-c2ccc(Cl)cc2)n1-c1cnccc1C(F)(F)F` [Example 73, hydrochloride], 90 nM. Compound `COc1cc(C(=O)NCCCN(C)C)ccc1-c1ccc(-c2ccc(Cl)cc2)n1-c1cnccc1C(F)(F)F` [Example 74, hydrochloride] had a GI50 of 130 nM.

`CN(C)CCNC(=O)c1ccc(-c2ccc(-c3ccc(Cl)cn3)n2-c2ccccc2C(F)(F)F)cc1` [Example 75, hydrochloride] displayed a GI50 of 150 nM. For `CN(C)CCCNC(=O)c1ccc(-c2ccc(-c3ccc(Cl)cn3)n2-c2ccccc2C(F)(F)F)cc1` [Example 76, hydrochloride] the value was 240 nM.

Take `CN(C)CCNC(=O)c1ccc(-c2ccc(-c3ccc(Cl)cc3)n2-c2cccc(C(F)(F)F)c2)cc1` [Example 77, hydrochloride]: the 50% growth inhibitory concentration (GI50) was determined as 3630 nM. Compound `CN(C)CCCNC(=O)c1ccc(-c2ccc(-c3ccc(Cl)cc3)n2-c2cccc(C(F)(F)F)c2)cc1` [Example 78, hydrochloride] registered a GI50 of 2130 nM. For `CN(C)CCNC(=O)c1ccc(-c2ccc(-c3ccc(Cl)cc3)n2-c2ncccc2C(F)(F)F)cc1` [Example 79, hydrochloride] the value was 3830 nM. With `CN(C)CCCNC(=O)c1ccc(-c2ccc(-c3ccc(Cl)cc3)n2-c2ncccc2C(F)(F)F)cc1` [Example 80, hydrochloride], the GI50 worked out at 3920 nM. For `O=C(NCCN1CCOCC1)c1ccc(-c2ccc(-c3ccc(Cl)cc3)n2-c2cnccc2C(F)(F)F)cc1` [Example 81, hydrochloride] the value was 80 nM.
